# Like-named read-outs stand apart in the source and are kept apart here.
# Legend:
# CT/CGRP enhancer [1] = assay: CT/CGRP promoter/enhancer luciferase reporter transfection assay in CA77 cells; type: cell-based, rat
# CT/CGRP enhancer [2] = assay: CT/CGRP promoter/enhancer luciferase reporter transfection assay in Rat1 fibroblast cells; type: cell-based, rat
# Text: Reporter fusion genes were constructed for experiments to localize cis-active elements responsible for glucocorticoid repression of the CT/CGRP gene.
# (§1) The 44-2C rat medullary thyroid carcinoma cell line was maintained in DMEM (high glucose) with 1% equine serum (HyClone Laboratories, Logan, Utah) and 0.1% L-glutamine; CA77 rat medullary thyroid carcinoma cells in Ham's F-12 medium/DMEM (low glucose)(1:1) with 10% fetal bovine serum (HyClone Laboratories); HeLa human epithelial derived cells in Ham's F-12 medium with 10% fetal bovine serum; and Rat1 fibroblast cells in DMEM (high glucose) with 10% calf serum. Also, 100 units/ml penicillin and 100 μg/ml streptomycin (GIBCO) were added to each culture medium.
# (§2) Transfections were carried out by growing cells to approximately 80% confluency, harvesting them by brief trypsin/EDTA treatment, and resuspending them in Ca^2+ /Mg^2+ -free PBS.
# Activity of the reporter genes and control constructs was measured by luciferase, CAT, or β-Galactosidase assays. […] After centrifugation, 20-50 μl of supernatant cell extract was assayed for luciferase activity as previously described (Braiser, A. R., Tate, J. E., and Habener, J. F. (1989) Biotechniques 7, 1116-1122) using a luminometer (Analytical Luminescence Laboratory Monolight 2001). […]
# CT/CGRP enhancer [3] = assay: CT/CGRP promoter/enhancer reporter gene (luciferase/CAT) transfection assay in 44-2C cells
# Text: as §1, §2
# In the retinoic acid experiments, the cells were treated essentially as above except that an apparently critical parameter for retinoic acid inhibition was that the CA77 cells could not be aggregated into clumps. To be consistent, all cell types were subcultured by trypsin treatment 1 day prior to the experiment, except for the 44-2C cells, which often required 2 days to firmly attach. About 4-5×10^6 cells in 0.8 ml were transfected with supercoiled DNA by electroporation using a Biorad Gene Pulser apparatus at 200 volts for the CA77 cells, 220 volts for the HeLa cells, and 260 volts for the 44-2C cells, all with a capacitance of 960 microfarads. The same amount of DNA (20 μg) was used per cuvette unless otherwise indicated. For the α-RXR cotransfection assays, 10 μg 18 bp CT/CGRP-TK-luc plasmid, 18 μg RSV-α-RAR plasmid, or 2 μg β-actin-RXR plasmid (brought to 30 μg total DNA with CMV-β-gal plasmid) were transfected into the cells (constructs described in Glass, C. K., S. M. Lipkin, O. V. Devary, and M. G. Rosenfeld (1989) Cell 59, 697-708; Glass, C. K., O. V. Devary, and M. G. Rosenfeld (1990) Cell 63, 729-738). The transfected cells from a single cuvette were then split between two 60 mm dishes and treated with 1 mM retinoic acid (Sigma) or the vehicle (0.01% ethanol). About 50 to 80% cell survival of the electroporation procedure was observed, except the 44-2C cells, in which approximately 25% of the cells were recovered. The cells were harvested 18-25 hours after transfection. Activities are reported per 50 μg protein unless otherwise noted.
# Activity of the reporter genes and control constructs was measured by luciferase, CAT, or β-Galactosidase assays.
# CT/CGRP enhancer [4] = assay: CT/CGRP promoter/enhancer luciferase reporter transfection assay in HeLa cells; type: cell-based, human
# [5] = system: H/OB, OB2, HB1 and Oct-1 complexes on CT/CGRP enhancer; assay: Electrophoretic mobility shift assay of CT/CGRP enhancer complexes in CA77 nuclear extracts; type: biochemical, rat; settings: nuclear extracts from CA77 cells treated 24 hours with retinoic acid
# Experimental: To perform electrophoretic mobility shift assays, nuclei were harvested from approximately 10^8 cells using a previously described miniextract preparation protocol, with one modification (Lee, K. A. W., and Green, M. R. (1990) Methods Enzymol. 181, 20-25). Instead of dialyzing the extract to remove excess NaCl, the extract was diluted 1:1 with extract buffer lacking NaCl. Aliquots of the diluted extract were stored at -70° C. Annealed oligonucleotide duplexes (10 pmol) containing recessed 3' termini were labeled for use as probes by incorporation of [^32 P]dATP (25 μCi, 3000 Ci/mmol) using Klenow DNA polymerase. Both strands of blunt-ended oligonucleotides (10 pmol) were labeled separately using T4 polynucleotide kinase and [γ-^32 P]ATP (20 μCi, 3000 Ci/mmol), then annealed. Unlabeled oligonucleotides used for competition assays were annealed and then treated with Klenow DNA polymerase if the ends were not already blunt. All probes and competitor DNAs were purified over Sephadex G50 columns.
# The binding reaction (20 μl) contained approximately 3 μg (1-2 μl) of nuclear extract, 0.02 pmol of ^32 P-labeled DNA probe (50,000-100,000 cpm), 10 mM Tris-HCl, pH 7.5, 5% glycerol, 50 mM NaCl, 1 mM EDTA, and 1 mM dithiothreitol. Also, 0.1 μg of poly [d(I-C)] […] Unlabeled competitors were preincubated with nuclear extracts 10 minutes on ice prior to addition of probe. […]
# [6] = molecular target: nuclear retinoic acid receptor (RAR); settings: literature; read-out: nuclear retinoic acid receptor (RAR) binding affinity Kd; cited from earlier work
# calcitonin and CGRP mRNA = settings: CA77 cells, retinoic acid treatment, literature; cited from earlier work
# [7] = system: retinoic acid responsive element from the β-retinoic acid receptor gene (RARE-TK-luc); assay: cells; settings: Rattus norvegicus
# Experimental: In the retinoic acid experiments, the cells were treated essentially as above except that an apparently critical parameter for retinoic acid inhibition was that the CA77 cells could not be aggregated into clumps. […] About 4-5×10^6 cells in 0.8 ml were transfected with supercoiled DNA by electroporation using a Biorad Gene Pulser apparatus at 200 volts for the CA77 cells, 220 volts for the HeLa cells, and 260 volts for the 44-2C cells, all with a capacitance of 960 microfarads. The same amount of DNA (20 μg) was used per cuvette unless otherwise indicated. For the α-RXR cotransfection assays, 10 μg 18 bp CT/CGRP-TK-luc plasmid, 18 μg RSV-α-RAR plasmid, or 2 μg β-actin-RXR plasmid (brought to 30 μg total DNA with CMV-β-gal plasmid) were transfected into the cells (constructs described in Glass, C. K., S. M. Lipkin, O. V. Devary, and M. G. Rosenfeld (1989) Cell 59, 697-708; Glass, C. K., O. V. Devary, and M. G. Rosenfeld (1990) Cell 63, 729-738). The transfected cells from a single cuvette were then split between two 60 mm dishes and treated with 1 mM retinoic acid (Sigma) or the vehicle (0.01% ethanol). […] The cells were harvested 18-25 hours after transfection. Activities are reported per 50 μg protein unless otherwise noted.
# Activity of the reporter genes and control constructs was measured by luciferase, CAT, or β-Galactosidase assays. To carry out the luciferase assays, cells were washed twice in PBS, harvested by scraping into PBS and then lysed in 100 μl of Triton lysis buffer (1% Triton X-100, 25 mM glycylclycine, pH 7.8, 15 mM MgSO4, 1 mM dithiothreitol). After centrifugation, 20-50 μl of supernatant cell extract was assayed for luciferase activity as previously described (Braiser, A. R., Tate, J. E., and Habener, J. F. (1989) Biotechniques 7, 1116-1122) using a luminometer (Analytical Luminescence Laboratory Monolight 2001). The assay was linear between 100 (background) and at least 800,000 light units.
# [8] = system: cytomegalovirus promoter / thymidine kinase promoter; assay: Control reporter genes CMV-luc and TK-luc in CA77 and 44-2C cells; type: cell-based, rat; settings: 1 μM retinoic acid
smiles,measurement,setting,value
"CC1=C(/C=C/C(C)=C/C=C/C(C)=C/C=O)C(C)(C)CCC1 [Retinal, retinal]",minimal effective concentration,"CT/CGRP enhancer [1]; Rattus norvegicus, 1125 CAL-luc, read-out: concentrations at which CT/CGRP promoter activity was repressed",≥ 0.1 µM
same,IC50,"CT/CGRP enhancer [1]; Rattus norvegicus, 1125 CAL-luc, read-out: half-maximal repression of CT/CGRP promoter activity",300 nM
C[C@@H]1C[C@H]2[C@@H]3CCC4=CC(=O)C=C[C@]4(C)[C@@]3(F)[C@@H](O)C[C@]2(C)[C@@]1(O)C(=O)CO [dexamethasone],repression of activity of the -920-1125 enhancer,CT/CGRP enhancer [2],did not repress
same,repression of -920-1125 TK-LUC fusion gene expression,"CT/CGRP enhancer [3]; 44-2C cells, 500 nM dexamethasone",2.5-3 fold
same,repression of promoter activity of fusion genes containing at least 1125 bp of upstream sequences,"CT/CGRP enhancer [3]; 44-2C cells, 500 nM dexamethasone, 24 h",2.5-4.5 fold
same,"repression of -920-1125 TK-LUC fusion gene expression, in a few experiments","CT/CGRP enhancer [3]; 44-2C cells, 500 nM dexamethasone, a few experiments",≤ 10 fold
same,effect on gene activity from the shorter constructs,"CT/CGRP enhancer [3]; 44-2C cells, 500 nM dexamethasone, constructs lacking -920-1125 region",slightly stimulated
same,repression with -1091-1017 and -1043-1025 elements (TK-LUC),"CT/CGRP enhancer [3]; 44-2C cells, dexamethasone",24 fold
same,repression of -920-1125-TK-LUC promoter activity in dose response,"CT/CGRP enhancer [3]; 44-2C cells, dexamethasone concentrations above 50 nM, 24 h",approximately 10 fold
same,IC50,"CT/CGRP enhancer [3]; Rattus norvegicus, 24 h, read-out: dexamethasone concentration for half-maximal inhibition of -920-1125-TK-LUC",2.5 nM
same,repression of calcitonin/CGRP promoter fusion genes containing the -920-1125-bp element,CT/CGRP enhancer [1]; dexamethasone treatment,did not repress
same,repression with smaller elements that include the 18-bp region (TK-LUC),CT/CGRP enhancer [1]; p<0.01,1.6 fold
same,repression of activity of the -920-1125-bp region (TK-LUC),CT/CGRP enhancer [1]; p<0.05,1.2 fold
same,repression of activity of the -920-1125 enhancer,CT/CGRP enhancer [4]; HeLa cells,did not repress
same,stimulation of reporter activity of all plasmids including TK-LUC,CT/CGRP enhancer [4]; non-neuroendocrine cells,1.5-2 fold
CC1=C(/C=C/C(C)=C/C=C/C(C)=C/C(=O)O)C(C)(C)CCC1 [retinoic acid],"change in OB2, HB1, or Oct-1 complexes",[5],no significant change
same,decrease in H/OB complex (densitometric scans),[5],~2 fold
same,Kd,[6],0.2 nM
same,decrease in calcitonin and CGRP mRNA levels,calcitonin and CGRP mRNA,2-3 fold
same,repression of 1125-920-TK-luc activity,"CT/CGRP enhancer [3]; 44-2C cells, 1 μM retinoic acid",2 fold
same,retinoic acid dependent repression with 75 bp and 18 bp fragments (TK-luc),CT/CGRP enhancer [1],comparable to the full 205 bp region
same,retinoic acid dependent repression with 1039-1125-TK-luc and 920-1038-TK-luc,CT/CGRP enhancer [1],Neither 1039-1125-TK-luc nor 920-1038-TK-luc exhibited retinoic acid dependent repression
same,retinoic acid repression with HLH or Oct mutant constructs,CT/CGRP enhancer [1],neither the HLH or Oct mutant constructs conferred retinoic acid repression
same,"maximal repression of 1125 CAL-luc, decrease of control activity",CT/CGRP enhancer [1]; 100 nM retinoic acid,3 fold
same,repression of promoter fragments containing 920 bp or less,CT/CGRP enhancer [1]; 1 μM retinoic acid,not repressed
same,decrease in promoter activity of luciferase fusion genes containing 1125 bp or more 5' flanking sequences,"CT/CGRP enhancer [1]; 1 μM retinoic acid, 24 hours",2-3 fold
same,repression in CAL1125-luc activity without cotransfected receptor,"CT/CGRP enhancer [1]; 1 μM retinoic acid, parallel cultures",2 fold
same,retinoic acid dependent repression in CAL1125-luc activity with cotransfected α-RAR,"CT/CGRP enhancer [1]; 1 μM retinoic acid, α-RAR expression vector",5 fold
same,IC50,"CT/CGRP enhancer [1]; Rattus norvegicus, read-out: amount required for half-maximal repression of 1125 CAL-luc",~0.2 nM
same,fold induction at 1 µM,"[7]; read-out: increase in RARE-TK-luc activity, 44-2C cells, 1 μM retinoic acid",35
same,fold induction at 1 µM,"[7]; read-out: increase in RARE-TK-luc activity, CA77 cells, 1 μM retinoic acid, no cotransfected receptor",5
same,fold induction at 1 µM,"[7]; read-out: retinoic acid dependent stimulation of RARE-TK-luc activity with cotransfected α-RAR, CA77 cells, 1 μM retinoic acid, α-RAR expression vector",15
same,effect on 1125-920-TK-luc activity,"CT/CGRP enhancer [4]; HeLa cells, 1 μM retinoic acid, also with α-RAR/α-RXR cotransfection",no effect
same,effect on TK-luc activity,[8]; 44-2C cells,no effect
same,effect on CMV-luc and TK-luc,[8]; CA77 cells,not significantly affected

# — US6159735A, “Calcitonin/calcitonin gene related peptide enhancer element and associated DNA binding proteins” (University of Iowa Research Foundation, priority 1995, dated 2000)
